{"source": "patent US20100112102A1", "about": "“THERAPEUTIC COMPOSITIONS FOR THE TREATMENT OF BENIGH PROSTATE HYPERPLASIA, PROSTATITIS, IMPOTENCE, INFERTILITY AND PROSTATE CANCER AND A METHOD FOR THE USE THEREOF” (priority 2007, published 2010)", "origin": "cited, not measured here", "system": "5α-reductase", "settings": "one group of patients", "data": [{"molecule": "CC(C)(C)NC(=O)[C@H]1CC[C@H]2[C@@H]3CC[C@H]4NC(=O)C=C[C@]4(C)[C@H]3CC[C@]12C", "note": "[Finasteride]", "values": [{"measurement": "J-PSS parameters, decrease on average", "result": 20, "unit": "%"}, {"measurement": "maximal rate of urination, increase", "result": 32.5, "unit": "%"}, {"measurement": "prostate size, decrease on average", "result": 32, "unit": "%"}]}]}
